What all share (format): functional, cell-based
The subject of assay [1] is A549. Put plainly: Cytotoxicity against human A549 cells assessed as reduction in cell viability after 24 hrs by MTT assay. The following applies: A549, 24 h. (Formazan colour is commonly taken as a measure of viable cells.)
Assay [2] relates to MDA-MB-231. In words: Cytotoxicity against human MDA-MB-231 cells assessed as reduction in cell viability after 24 hrs by MTT assay.
Another assay has as its system HepG2. Put plainly: Anticancer activity against human HepG2 cells by MTT assay.
Assay [3] deals with MDA-MB-231. Put plainly: Anticancer activity against human MDA-MB-231 cells by MTT assay.
The next assay concerns 769-P. Put plainly: Anticancer activity against human 769-P cells by MTT assay.
Assay [4] concerns A549. Put plainly: Anticancer activity against human A549 cells by MTT assay.
Assay [5] has as its system A549. Put plainly: Cytotoxicity against human A549 cells assessed as reduction in cell viability after 68 hrs by MTT assay. The following applies: A549, 68 h.
Another assay has as its system K562. In words: Cytotoxicity against human K562 cells assessed as reduction in cell viability after 68 hrs by MTT assay. As to conditions: K562, 68 h.
Assay [6] concerns MCF7. Put plainly: Cytotoxicity against human MCF7 cells assessed as reduction in cell viability after 68 hrs by MTT assay. As to conditions: MCF7, 68 h.
A further assay deals with HeLa. In words: Cytotoxicity against human HeLa cells assessed as reduction in cell viability after 68 hrs by MTT assay.
Assay [7] deals with MCF7. Put plainly: Cytotoxicity against human MCF7 cells assessed as reduction in cell viability after 48 hrs by MTT assay. The following applies: MCF7, 48 h.

pIC50: −log10 of the molar value.

One may read the pIC50 as the IC50 on a negative log10 scale, so that one unit is a factor of ten.

Turning to `Cc1cccc(-c2cc(-c3cc4ccccc4oc3=O)nc(Cc3ccc(F)cc3)n2)c1`, the pIC50 in the assay with A549 [1] was 4.54 to 5.67; in the assay with MDA-MB-231 [2] (Homo sapiens, MDA-MB-231, 24 h) it was 4.54 to 5.67.

For `Cc1cc(=O)oc2cc(OCc3cn(CCCCCCCCCCOc4ccc5ccc(=O)oc5c4)nn3)ccc12`, the negative-log IC50 (pIC50) in the assay on HepG2, in the assay on MDA-MB-231 [3] and with 769-P was 4.87 to 6.42 each time.

`O=c1ccc2ccc(OCCCn3cc(COc4ccc5ccc(=O)oc5c4)nn3)cc2o1`: the negative logarithm of the IC50 (pIC50) in the assay on HepG2, in the assay on MDA-MB-231 [3] and with 769-P was 4.87 to 6.42 throughout.

Consider `Cc1cc(=O)oc2cc(OCc3cn(CCCOc4ccc5ccc(=O)oc5c4)nn3)ccc12`, for which the negative-log IC50 (pIC50) with HepG2, with MDA-MB-231 [3] and with 769-P was 4.87 to 6.42 in each case.

On to `Cc1cc(=O)oc2cc(OCc3cn(CCCCOc4ccc5ccc(=O)oc5c4)nn3)ccc12`, for which the pIC50 in the assay with HepG2, in the assay with MDA-MB-231 [3] and in the assay with 769-P was 4.87 to 6.42 in each case.

In the case of `Cc1ccccc1NC(=O)c1ccc(-n2cc(COc3cc(=O)oc4ccccc34)nn2)cc1`, in the assay on MDA-MB-231 [2] (mda-mb-231), the pIC50 was 4.04 to 7.52.

Turning to `O=c1oc2ccccc2cc1-c1cc(-c2ccc(Cl)cc2)nc(Cc2ccc(F)cc2)n1`, the pIC50 was 5.60 in the assay with A549 [1] and 5.60 in the assay with MDA-MB-231 [2] (Homo sapiens, MDA-MB-231, 24 h).

With `COc1ccccc1-c1cc(-c2cc3ccccc3oc2=O)nc(Cc2ccc(F)cc2)n1`, the pIC50 was 4.54 to 5.67 in the assay with A549 [1] and 4.54 to 5.67 with MDA-MB-231 [2] (Homo sapiens, MDA-MB-231, 24 h).

On to `Cc1cc(=O)oc2cc(OCc3cn(CCCCCCCCCCCCOc4ccc5ccc(=O)oc5c4)nn3)ccc12`, for which the pIC50 in the assay on HepG2, in the assay on MDA-MB-231 [3] and in the assay with 769-P was 4.87 to 6.42 each time.

Take `Cc1ccc2c(C3C4=C(CCCC4=O)OC3c3cc(=O)oc4ccc(C)cc34)cc(=O)oc2c1` (configuration not stated): the pIC50 with A549 [4] is 6.37 to 6.38.

For the molecule `COc1ccc(NC(=O)c2ccc(-n3cc(COc4cc(=O)oc5ccccc45)nn3)cc2)cc1`, the negative logarithm of the IC50 (pIC50) with MDA-MB-231 [2] (mda-mb-231) was 4.04 to 7.52.

As to `O=C(Nc1ccc(F)c(Cl)c1)c1ccc(-n2cc(COc3cc(=O)oc4ccccc34)nn2)cc1`, in the assay on MDA-MB-231 [2] (mda-mb-231), the pIC50 is 4.04 to 7.52.

Consider `O=c1ccc2ccc(OCCCCCCCCCCn3cc(COc4ccc5ccc(=O)oc5c4)nn3)cc2o1`, for which the negative logarithm of the IC50 (pIC50) in the assay on HepG2, with MDA-MB-231 [3] and in the assay with 769-P was 4.87 to 6.42 throughout.

Consider `Cc1c(Cc2ccc(NC(=O)Nc3ccccc3)nc2)c(=O)oc2cc(O)c(C(C)(C)C)cc12`, for which the pIC50 in the assay with A549 [5], in the assay with K562, in the assay on MCF7 [6] and with HeLa was 4.71 to 5.78 in each case.

For `CC(=O)c1ccc(NC(=O)Nc2ccc(Cc3c(C)c4cc(C(C)(C)C)c(O)cc4oc3=O)cn2)cc1`, the negative-log IC50 (pIC50) in the assay on A549 [5], in the assay with K562, with MCF7 [6] and with HeLa was 4.71 to 5.78 each time.

In the case of `Cc1c(Cl)cccc1NC(=O)c1ccc(-n2cc(COc3cc(=O)oc4ccccc34)nn2)cc1`, in the assay with MDA-MB-231 [2] (mda-mb-231), the pIC50 is 4.04 to 7.52.

Take `O=c1oc2ccccc2cc1-c1cc(-c2cccc(Br)c2)nc(Cc2ccc(F)cc2)n1`: the pIC50 was 4.54 to 5.67 in the assay with A549 [1] and 4.54 to 5.67 in the assay on MDA-MB-231 [2] (Homo sapiens, MDA-MB-231, 24 h).

With `Cc1cc(-c2cc3cc(Br)ccc3oc2=O)n(-c2nc(-c3ccccc3)cs2)n1`, the negative-log IC50 (pIC50) in the assay with MCF7 [7] is 4.50 to 5.39.

`O=c1ccc2ccc(OCCCCn3cc(COc4ccc5ccc(=O)oc5c4)nn3)cc2o1`: the negative-log IC50 (pIC50) in the assay on HepG2, with MDA-MB-231 [3] and in the assay on 769-P was 4.87 to 6.42 throughout.

In the case of `Cc1cc(-c2cc3cc(Cl)ccc3oc2=O)n(-c2nc(-c3ccc(Br)cc3)cs2)n1`, the negative logarithm of the IC50 (pIC50) in the assay on MCF7 [7] is 4.50 to 5.39.

As for `O=c1oc2ccccc2cc1-c1cc(-c2ccc(Br)cc2)nc(Cc2ccc(F)cc2)n1`, the negative-log IC50 (pIC50) was 4.54 to 5.67 in the assay with A549 [1] and 4.54 to 5.67 with MDA-MB-231 [2] (Homo sapiens, MDA-MB-231, 24 h).

Regarding `COc1ccc(OC)c(NC(=O)Nc2ccc(Cc3c(C)c4cc(C(C)(C)C)c(O)cc4oc3=O)cn2)c1`, the pIC50 in the assay with A549 [5], in the assay with K562, with MCF7 [6] and with HeLa was 4.71 to 5.78 throughout.

`O=c1ccc2ccc(OCCCCCCCCCCCCn3cc(COc4ccc5ccc(=O)oc5c4)nn3)cc2o1`: the pIC50 with HepG2, in the assay with MDA-MB-231 [3] and in the assay with 769-P was 4.87 to 6.42 in each case.

Take `Cc1cc(=O)oc2cc(OCc3cn(CCCCCCOc4ccc5ccc(=O)oc5c4)nn3)ccc12`: the pIC50 in the assay on HepG2, in the assay on MDA-MB-231 [3] and with 769-P was 4.87 to 6.42 throughout.

As for `Cc1cc(=O)oc2cc(OCc3cn(CCCCCCCOc4ccc5ccc(=O)oc5c4)nn3)ccc12`, the pIC50 in the assay with HepG2, in the assay on MDA-MB-231 [3] and with 769-P was 4.87 to 6.42 in each case.

With `O=C(Nc1ccccc1)c1ccc(-n2cc(COc3cc(=O)oc4ccccc34)nn2)cc1`, the pIC50 in the assay on MDA-MB-231 [2] (mda-mb-231) is 4.04 to 7.52.

In the case of `Cc1ccc2oc(=O)cc(C3OC4=C(C(=O)CCC4)C3c3cc(=O)oc4ccc(C)cc34)c2c1` (configuration not stated), the pIC50 in the assay on A549 [4] is 6.37 to 6.38.

Regarding `O=C(Nc1ccc(Br)cc1)c1ccc(-n2cc(COc3cc(=O)oc4ccccc34)nn2)cc1`, the pIC50 in the assay on MDA-MB-231 [2] (mda-mb-231) was 4.04 to 7.52.

The values above are taken from ChEMBL document CHEMBL4373717, “Coumarin-containing hybrids and their anticancer activities” (Eur J Med Chem, 2019).
